From ChEMBL document CHEMBL3098094, “Synthesis and biological evaluation of novel N-substituted 1H-dibenzo[a,c]carbazole derivatives of dehydroabietic acid as potential antimicrobial agents” (2014) come the findings set out here.

SMILES strings stand for the structures. Converted amounts (≈) assume the structure as drawn.

Format in all cases: functional
The subject of one assay is Bacillus subtilis. The experiment in a line: Antimicrobial activity against Bacillus subtilis CGMCC1.1162 after 24 hrs by twofold serial microdilution method. The settings on record: CGMCC1.1162, 24 h.
The next assay has as its system Staphylococcus aureus. The assay can be described thus: Antimicrobial activity against Staphylococcus aureus CGMCC1.1361 after 24 hrs by twofold serial microdilution method. The settings on record: CGMCC1.1361, 24 h. (Dilution methods test growth across graded concentrations, often in twofold steps.)
The test system of another assay is Escherichia coli. The experiment in a line: Antimicrobial activity against Escherichia coli CGMCC1.1571 after 24 hrs by twofold serial microdilution method. The settings on record: CGMCC1.1571, 24 h.
The next assay concerns Candida tropicalis. The experiment in a line: Antimicrobial activity against Candida tropicalis CGMCC2.3967 after 48 hrs by twofold serial microdilution method. The settings on record: CGMCC2.3967, 48 h.
The test system of a further assay is Aspergillus niger. The experiment in a line: Antimicrobial activity against Aspergillus niger CGMCC3.316 after 48 hrs by twofold serial microdilution method. The settings on record: CGMCC3.316, 48 h.
A further assay relates to Pseudomonas fluorescens. The experiment in a line: Antimicrobial activity against Pseudomonas fluorescens CGMCC1.1828 after 24 hrs by twofold serial microdilution method. The settings on record: CGMCC1.1828, 24 h.
For another assay, the system named is Candida albicans. The assay can be described thus: Antimicrobial activity against Candida albicans CGMCC2.2086 after 48 hrs by twofold serial microdilution method. The settings on record: CGMCC2.2086, 48 h.

Consider `COC(=O)[C@]1(C)CCC[C@]2(C)c3ccc(C(C)C)cc3-c3c(c4ccccc4n3CCn3cnnn3)[C@@H]12`, for which the minimum inhibitory concentration (MIC) is 7.8 µg/mL (≈ 15.7 µM) in the assay with Bacillus subtilis; 31.2 µg/mL (≈ 62.7 µM) against Staphylococcus aureus; 31.2 µg/mL (≈ 62.7 µM) against Escherichia coli; 62.5 µg/mL (≈ 126 µM) in the assay on Candida tropicalis; greater than 100 µg/mL against Aspergillus niger; 15.6 µg/mL (≈ 31.3 µM) against Pseudomonas fluorescens. Also, 31.2 µg/mL (≈ 62.7 µM) was the least that counted as inhibitory with Candida albicans (MIC).
In the case of `COC(=O)[C@]1(C)CCC[C@]2(C)c3ccc(C(C)C)cc3C(=O)C[C@@H]12`, the MIC was 31.2 µg/mL (≈ 95 µM) in the assay with Bacillus subtilis; 31.2 µg/mL (≈ 95 µM) in the assay on Staphylococcus aureus; greater than 100 µg/mL against Escherichia coli; greater than 100 µg/mL against Candida tropicalis; greater than 100 µg/mL with Aspergillus niger; 62.5 µg/mL (≈ 190 µM) in the assay with Pseudomonas fluorescens. Also, the minimal inhibitory concentration (MIC) against Candida albicans was greater than 100 µg/mL.
On to `COC(=O)[C@]1(C)CCC[C@]2(C)c3ccc(C(C)C)cc3-c3c(c4ccccc4n3CCN(C)C)[C@@H]12`, for which the MIC with Bacillus subtilis is 62.5 µg/mL (≈ 132 µM); with Staphylococcus aureus, greater than 100 µg/mL; against Escherichia coli it was greater than 100 µg/mL; with Candida tropicalis, greater than 100 µg/mL; in the assay on Aspergillus niger it was greater than 100 µg/mL; in the assay with Pseudomonas fluorescens it was 62.5 µg/mL (≈ 132 µM). Besides, in the assay on Candida albicans, the minimum inhibitory concentration (MIC) is greater than 100 µg/mL.
Consider `CCCCN(CCCC)CCn1c2c(c3ccccc31)[C@H]1[C@](C)(C(=O)OC)CCC[C@]1(C)c1ccc(C(C)C)cc1-2`, for which the MIC was 15.6 µg/mL (≈ 28 µM) against Bacillus subtilis; 15.6 µg/mL (≈ 28 µM) in the assay on Staphylococcus aureus; 31.2 µg/mL (≈ 56 µM) against Escherichia coli; 31.2 µg/mL (≈ 56 µM) against Candida tropicalis; 62.5 µg/mL (≈ 112 µM) in the assay with Aspergillus niger; 15.6 µg/mL (≈ 28 µM) against Pseudomonas fluorescens. The molecule further gave an MIC in the assay on Candida albicans of 31.2 µg/mL (≈ 56 µM).
Consider `CCCN(CCC)CCn1c2c(c3ccccc31)[C@H]1[C@](C)(C(=O)OC)CCC[C@]1(C)c1ccc(C(C)C)cc1-2`, for which the MIC in the assay on Bacillus subtilis was 15.6 µg/mL (≈ 29.5 µM); against Staphylococcus aureus, 31.2 µg/mL (≈ 59 µM); in the assay with Escherichia coli, 31.2 µg/mL (≈ 59 µM); against Candida tropicalis, 62.5 µg/mL (≈ 118 µM); in the assay with Aspergillus niger, greater than 100 µg/mL; in the assay with Pseudomonas fluorescens, 31.2 µg/mL (≈ 59 µM). This molecule displayed an MIC against Candida albicans of 31.2 µg/mL (≈ 59 µM).
On to `COC(=O)[C@]1(C)CCC[C@]2(C)c3ccc(C(C)C)cc3-c3c(c4ccccc4n3CCNc3ccc(C)cc3)[C@@H]12`, for which the MIC with Bacillus subtilis was 62.5 µg/mL (≈ 117 µM); against Staphylococcus aureus, greater than 100 µg/mL; with Escherichia coli, greater than 100 µg/mL; against Candida tropicalis, greater than 100 µg/mL; in the assay with Aspergillus niger, greater than 100 µg/mL; in the assay on Pseudomonas fluorescens, greater than 100 µg/mL. For the same molecule, in the assay on Candida albicans, the MIC was greater than 100 µg/mL.
As to `COC(=O)[C@]1(C)CCC[C@]2(C)c3ccc(C(C)C)cc3-c3c(c4ccccc4n3CCn3c([N+](=O)[O-])cnc3C)[C@@H]12`, the MIC is 0.9 µg/mL (≈ 1.62 µM) in the assay on Bacillus subtilis; 1.9 µg/mL (≈ 3.43 µM) in the assay with Staphylococcus aureus; 7.8 µg/mL (≈ 14.1 µM) with Escherichia coli; 31.2 µg/mL (≈ 56.2 µM) against Candida tropicalis; greater than 100 µg/mL in the assay on Aspergillus niger; 7.8 µg/mL (≈ 14.1 µM) in the assay on Pseudomonas fluorescens. In the assay on Candida albicans, this molecule yielded an MIC of 31.2 µg/mL (≈ 56.2 µM).
Regarding `COC(=O)[C@]1(C)CCC[C@]2(C)c3ccc(C(C)C)cc3-c3[nH]c4ccccc4c3[C@@H]12`, the minimum inhibitory concentration (MIC) is 31.2 µg/mL (≈ 77.7 µM) against Bacillus subtilis; 62.5 µg/mL (≈ 156 µM) with Staphylococcus aureus; greater than 100 µg/mL in the assay with Escherichia coli; greater than 100 µg/mL against Candida tropicalis; greater than 100 µg/mL in the assay with Aspergillus niger; 62.5 µg/mL (≈ 156 µM) against Pseudomonas fluorescens. The MIC in the assay with Candida albicans was greater than 100 µg/mL.
As for `COC(=O)[C@]1(C)CCC[C@]2(C)c3ccc(C(C)C)cc3-c3c(c4ccccc4n3CCn3cnc4ccccc43)[C@@H]12`, the MIC with Bacillus subtilis was 31.2 µg/mL (≈ 57.2 µM); against Staphylococcus aureus it was 31.2 µg/mL (≈ 57.2 µM); against Escherichia coli it was 31.2 µg/mL (≈ 57.2 µM); with Candida tropicalis, 62.5 µg/mL (≈ 115 µM); with Aspergillus niger it was greater than 100 µg/mL; against Pseudomonas fluorescens, 31.2 µg/mL (≈ 57.2 µM). In the assay on Candida albicans, it took 31.2 µg/mL (≈ 57.2 µM) to inhibit growth (MIC).
Regarding `COC(=O)[C@]1(C)CCC[C@]2(C)c3ccc(C(C)C)cc3-c3c(c4ccccc4n3CCNc3ccc(Cl)cc3)[C@@H]12`, the MIC was 31.2 µg/mL (≈ 56.2 µM) with Bacillus subtilis; 31.2 µg/mL (≈ 56.2 µM) in the assay with Staphylococcus aureus; greater than 100 µg/mL against Escherichia coli; greater than 100 µg/mL in the assay on Candida tropicalis; greater than 100 µg/mL against Aspergillus niger; 62.5 µg/mL (≈ 113 µM) with Pseudomonas fluorescens. The molecule further registered a minimum inhibitory concentration (MIC) with Candida albicans of 62.5 µg/mL (≈ 113 µM).
Take `COC(=O)[C@]1(C)CCC[C@]2(C)c3ccc(C(C)C)cc3-c3c(c4ccccc4n3CCN3CCCCC3)[C@@H]12`: the minimum inhibitory concentration (MIC) against Bacillus subtilis was 15.6 µg/mL (≈ 30.4 µM); in the assay with Staphylococcus aureus, 62.5 µg/mL (≈ 122 µM); with Escherichia coli, greater than 100 µg/mL; with Candida tropicalis it was 62.5 µg/mL (≈ 122 µM); in the assay with Aspergillus niger, greater than 100 µg/mL; against Pseudomonas fluorescens, 62.5 µg/mL (≈ 122 µM). In the assay with Candida albicans, this molecule had an MIC greater than 100 µg/mL.
Take `COC(=O)[C@]1(C)CCC[C@]2(C)c3ccc(C(C)C)cc3-c3c(c4ccccc4n3CCN3CCN(C)CC3)[C@@H]12`: the minimal inhibitory concentration (MIC) against Bacillus subtilis came to 3.9 µg/mL (≈ 7.39 µM); with Staphylococcus aureus it was 1.9 µg/mL (≈ 3.6 µM); with Escherichia coli, 15.6 µg/mL (≈ 29.6 µM); with Candida tropicalis it was 7.8 µg/mL (≈ 14.8 µM); in the assay on Aspergillus niger it was 7.8 µg/mL (≈ 14.8 µM); in the assay on Pseudomonas fluorescens, 7.8 µg/mL (≈ 14.8 µM). Further, 7.8 µg/mL (≈ 14.8 µM) was the least that counted as inhibitory in the assay on Candida albicans (MIC).
Regarding `COC(=O)[C@]1(C)CCC[C@]2(C)c3ccc(C(C)C)cc3-c3c(c4ccccc4n3CCn3ccnn3)[C@@H]12`, the minimal inhibitory concentration (MIC) was 7.8 µg/mL (≈ 15.7 µM) in the assay with Bacillus subtilis; 31.2 µg/mL (≈ 62.8 µM) against Staphylococcus aureus; 15.6 µg/mL (≈ 31.4 µM) in the assay with Escherichia coli; greater than 100 µg/mL in the assay on Candida tropicalis; greater than 100 µg/mL against Aspergillus niger; 31.2 µg/mL (≈ 62.8 µM) in the assay on Pseudomonas fluorescens. The MIC against Candida albicans is greater than 100 µg/mL.
As to `COC(=O)[C@]1(C)CCC[C@]2(C)c3ccc(C(C)C)cc3-c3c(c4ccccc4n3CCNc3ccc(Br)cc3)[C@@H]12`, the MIC was 31.2 µg/mL (≈ 52 µM) against Bacillus subtilis; 62.5 µg/mL (≈ 104 µM) in the assay with Staphylococcus aureus; greater than 100 µg/mL with Escherichia coli; greater than 100 µg/mL with Candida tropicalis; greater than 100 µg/mL in the assay on Aspergillus niger; greater than 100 µg/mL in the assay with Pseudomonas fluorescens. This molecule also registered a minimal inhibitory concentration (MIC) in the assay on Candida albicans greater than 100 µg/mL.
On to `COC(=O)[C@]1(C)CCC[C@]2(C)c3ccc(C(C)C)cc3-c3c(c4ccccc4n3CCn3ncnn3)[C@@H]12`, for which the MIC in the assay on Bacillus subtilis is 31.2 µg/mL (≈ 62.7 µM); against Staphylococcus aureus, 31.2 µg/mL (≈ 62.7 µM); in the assay with Escherichia coli, 62.5 µg/mL (≈ 126 µM); in the assay with Candida tropicalis it was greater than 100 µg/mL; with Aspergillus niger it was greater than 100 µg/mL; in the assay with Pseudomonas fluorescens, 62.5 µg/mL (≈ 126 µM). Further, in the assay on Candida albicans, the MIC is greater than 100 µg/mL.

The MIC is the smallest concentration in the dilution series that meets the test's criterion for growth inhibition.
